Data reported in US7807712B2, “Oxy substituted chalcones as antihyperglycemic and antidyslipidemic agents” (priority 2004, dated 2010).
Where two headings read alike, the source gives them in different places.

Tests used:
sucrose loaded rats = assay: Sucrose loaded rat model (SLM), antihyperglycemic activity; assay type: in vivo, rat (Charles Foster/Wistar); settings: for inhibition in vivo at 100 mg/kg: Rattus norvegicus, 2 h, 100 mg/kg oral, sucrose load 10.0 g/kg, AUC vs control, 30-120 min, read-out: % Fall in blood glucose levels SLM; for activity in SLM model: summary statement
Method: Male albino rats of Charles Foster/Wistar strain of average body weight 160±20 g were selected for this study. The blood glucose level of each animal was checked by glucometer using glucostrips (Boehringer Mannheim) after 16 h starvation. Animals showing blood glucose levels between 3.33 to 4.44 mM (60 to 80 mg/dl) were divided into groups of five to six animals in each. Animals of experimental group were administered suspension of the desired synthetic compound orally (made in 1.0% gum acacia) at a dose of 100-mg/kg-body weight. Animals of control group were given an equal amount of 1.0% gum acacia. A sucrose load (10.0 g/kg) was given to each animal orally exactly after 30 min post administration of the test sample/vehicle. Blood glucose profile of each rat was again determined at 30, 60, 90 and 120 min post administration of sucrose by glucometer. Food but not water was withheld from the cages during the course of experimentation. Quantitative glucose tolerance of each animal was calculated by Area Under Curve (AUC) method (Prism Software). Comparing the AUC of experimental and control groups determined the percentage antihyperglycemic activity. Statistical comparison was made by Dunnett's test.

[1] = tested on: triton WR-1339 induced hyperlipidemic rats; assay: Triton model, antidyslipidemic activity; assay type: in vivo, rat (Charles foster); settings: Rattus norvegicus, 100 mg/kg oral
Method: Male Charles foster rats weighing 200-225 g were divided into control, hyperlipidemic and hyperlipidemic plus drug treated groups containing six animals in each group. Hyperlipidemia was induced by administration of triton WR-1339 (200 mg/kg i.p.). All animals were maintained on a special pellet diet and water ad libitum. Compounds and standard drug were macerated with 0.2% aqueous gum acacia suspension. The suspension was fed orally at the dose of 100 mg/kg simultaneously with triton in drug treated group. The animals of control group received the same amount of gum acacia by similar route of administration. At the end of the experiment, after 18 h, blood was withdrawn from retro orbital plexus and plasma was used for the assay of total cholesterol, phospholipid and triglycerides.
Cholesterol was estimated using the kit provided by Roche Diagnostics. Cholesterol esters are enzymatically hydrolyzed by cholesterol esterase (CE) to cholesterol and free fatty acids. Free cholesterol, including that originally present, is then oxidized by cholesterol oxidase (CO) to cholest-4-en-3-one and hydrogen peroxide. The hydrogen peroxide combines with hydroxy benzoic acid (HBA) and 4-aminoantipyrine (4AAA) in the presence of peroxidase (POD) to form a chromophore (quinoneimine dye), which may be quantitated at 500-505 nm. The intensity of red colour formed is directly proportional to the concentration of total cholesterol in the specimen and measured spectrophotometrically (Searcy, C. L. Diagnostic Biochemistry, 1969, McGraw Hill, New York; Ellefson, R. D.; Caraway, W. T. Fundamentals of clinical chemistry, 1976, Ed Tietz N W, 506-515.)
Triglycerides were estimated using the kit provided by Roche Diagnostics. Lipoprotein lipase hydrolyses triglycerides to yield glycerol and fatty acids. Glycerol kinase converts glycerol to glycerol-3-phosphate, which is oxidized by glycerol phosphate oxidase to dihydroxy acetone phosphate and hydrogen peroxide. In the presence of peroxidase, hydrogen peroxide oxidatively couples with 4-aminoantipyrine and 4-chloro phenol to produce red quinonimine dye. The intensity of red colour formed is directly proportional to the concentration of triglycerides in the specimen and is measured by photometrically (Wahlefeld, A. W.; Bergmeyer, H. U. Ed. Methods of enzymatic analysis, 2nd English edition, New York, N.Y., Academic press inc, 1831-1840.).
Serum (0.2 mL) and perchloric acid (1.0 mL) was digested at 180° C. for 1-1.5 h till the solution became colorless. The liberated inorganic phosphate (Pi) was measured by the method of Fiske and Subbarow (Fiske, C. H.; Subbarow, V. J. Biol. Chem. 1925, 66, 375.). 1 mL of 2.5% ammonium molybdate (prepared in 5 N sulphuric acid) and 0.5 mL reducing agent (4-amino naphthol sulphonic acid, 0.2%), sodium metabisulphite (2.4% w/v in distilled water) was added to the above tubes and mixed well. The reaction mixture was […] with 2.5 mL of triple distilled water and kept at 60° C. in water bath for 20 min. For standard, an appropriate amount of potassium dihydrogen phosphate dissolved in triple distilled water containing 2-10 μg phosphorus (Pi) was run simultaneously with the experiment tubes. The optical density of the blue colour was recorded at 620 nm against reagent blank. The values of Pi were converted into phospholipid by multiplying with 25 (a constant calibrated from Pi value of lecithin).

[2] = plasma phospholipid after 18 h, read-out: % Fall in lipid levels (Triton model) PL
[3] = plasma total cholesterol after 18 h, read-out: % Fall in lipid levels (Triton model) TC
[4] = plasma triglycerides after 18 h, read-out: % Fall in lipid levels (Triton model) TG

SMILES	inhibition in vivo at 100 mg/kg (sucrose loaded rats) [%]	activity in SLM model (sucrose loaded rats)	inhibition in vivo at 100 mg/kg [1, 2] [%]	inhibition in vivo at 100 mg/kg [1, 3] [%]	inhibition in vivo at 100 mg/kg [1, 4] [%]
COc1ccc(/C=C/C(=O)c2ccc(OCC(O)CN3CCN(c4ccccc4)CC3)cc2)cc1OC (centres unmarked) [Compound 18, 3,4-Dimethoxy-4′-[2-hydroxy-3-(4-phenylpiperazin-1-yl)-propoxy]-chalcone]	15.4	significant results	8	20	12
CC(C)(C)NCC(O)COc1ccc(C(=O)/C=C/c2ccc3c(c2)OCO3)cc1 (centres unmarked) [Compound 34, 4′-[^3-tert-Butylamino-2-hydroxy-propoxy]-3,4-methylenedioxy-chalcone]	21.1	significant results	20	26	18
O=C1NC(=O)/C(=C\c2ccc(OCCCCCOc3cccc(C(=O)/C=C/c4ccc5c(c4)OCO5)c3)cc2)S1 [Compound 46, 3,4-Methylenedioxy-3′-{5-[4-(thiazolidin-2,4-dione-5-ylidinemethyl)-phenoxy]-pentyloxy}-chalcone]	13.4		20	13	20
